Data taken from PubChem BioAssay AID2060493 (Molecular Pharmacology Branch, DTP, NCI, 2025).
“And” between values parts separate entries of the source, which are not always exact repeats. Equal entries are not always repeated. Each block holds one compound with its values, some of them ahead of it.

Tested on: 616215-338-R-J1-PDC tumor spheroids, viability
Test: Anticancer human tumor 616215-338-R-J1-PDC patient-derived colon adenocarcinoma cell line growth inhibition [GQUAD]
Conditions: spheroids with HUVEC and MSC; for viability, T/C: stronger effect = lower value
From the text: DNA G-quadruplex Stabilizer Agents in Combinations in Complex Spheroids
A high-throughput screen of multi-cell type tumor spheroids was designed to identify active combinations of DNA G-quadruplex stabilizer agents and targeted small molecules. Complex spheroids include a stromal component modeled by human endothelial cells (HUVEC) and fibroblasts modeled by human mesenchymal stem cells (MSCs). The concentration ranges selected for each drug and investigational agent were based upon clinically achievable concentrations if the clinical Cmax of the agent was known.
Compounds. The drugs and investigational agents: pidnarulex (CX-5461; NSC782164), APTO-253 (NSC789042), BRACO-19 (NSC847499), peposertib (NSC802822), ceralasertib (NSC780249), elimusertib (NSC800525), camonsertib (NSC841442), AZD-1390 (NSC803789), olaparib (NSC753686), talazoparib (NSC767125), ART-558 (NSC835418), sotorasib (NSC818433), MRTX-1133 (NSC836407), SN-38 (NSC673596), topotecan (NSC609699), etoposide (NSC141540), doxorubicin (NSC123127), gemcitabine (NSC613327), 5-fluorouracil (NSC19893), paclitaxel (NSC125973), vemurafenib (NSC761431), panobinostat (NSC761190), R-306465 (JNJ-16241199; NSC773264), adavosertib (NSC754352), TP-3654 (NSC805149), carboplatin (NSC241240), KSQ-4279 (NSC840948), and staurosporine (NSC755774) were obtained from the National Cancer Institute (NCI) Developmental Therapeutics Program Chemical Repository (34). The FDA-approved anticancer drug set is available from the NCI Developmental Therapeutics Program. […] The stock solutions were prepared in dimethyl sulfoxide (DMSO, Sigma-Aldrich, St. Louis, MO, cat. D2650) at 800-fold the tested concentration and stored at -70 degrees C prior to their use. All drugs and investigational agents were tested over a range starting from a high concentration at or near the clinical Cmax and decreasing in half-log increments. If the clinical Cmax for an agent had not been determined, the highest concentration tested was 10 microM.
2.3 Cell Culture. All cells were maintained in an incubator at 37 degrees C and 5% CO2 with 95% humidity. The PDC lines were cultured according to standard operating procedures established by the NCI PDMR. All PDCs were thawed and cultured in Matrigel-coated flasks prepared with a working solution of 1X Ham's F-12 nutrient mix, without supplementation (Invitrogen, cat. 11765054), 100 U/mL penicillin-streptomycin (Invitrogen, cat. 15140122), and 2.5% Matrigel (Corning Inc., cat. 354248) for the first three passages. The 857933-349-R-J2-PDC line was cultured in 6C/Colon 1B media, which includes advanced DMEM/F-12 (Thermo Fisher Scientific, cat. 12634028), 10 mM HEPES (Thermo Fisher Scientific, cat. 15630080), 1X GlutaMAX supplement (Thermo Fisher Scientific, cat. 35050061), 0.1 mg/mL primocin (InvivoGen, cat. ant-pm-2), 10% defined fetal bovine serum, heat inactivated (HyClone Laboratories Inc., cat. SH30070.03HI), 50% L-WRN conditioned media (ATCC, cat. CRL-3276), 1.25 mM N-Acetyl-L-cysteine (Sigma-Aldrich, cat. A9165), 10 mM nicotinamide (Sigma-Aldrich, cat. N0636), 1X B-27 supplement (Thermo Fisher Scientific, cat. 17504044), 1X N-2 supplement (Thermo Fisher Scientific, cat. 17502048), 10 microM Y-27632 dihydrochloride (Tocris Bioscience, cat. 1254), and 50 ng/mL human EGF recombinant protein (Thermo Fisher Scientific, cat. PHG0311). The 485176-168-R4-J1-PDC line was cultured in Panc media, which includes all 6C/Colon 1B media components plus 100 ng/mL human FGF-10 (Thermo Fisher Scientific, cat. 100-26), 500 nM SB-431542 (Selleckchem, cat. S1067), and gastrin (Tocris, cat. 3006).
[…]
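Further: spheroids exposed to agents for 7 days before readout.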
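Wherever viability, T/C is given: percent viability relative to DMSO vehicle control wells taken as 100%.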

IC50 (curve of compound): 8.04 µM and > 10 µM
Compound: C#Cc1c(F)ccc2cc(O)cc(-c3ncc4c(N5CC6CCC(C5)N6)nc(OCC56CCCN5CC(F)C6)nc4c3F)c12 (stereo unspecified)
viability, T/C (compound 0.0316 µM): 100% and 113% and 106%
viability, T/C (compound 0.1 µM): 90.1% and 98.3% and 110%
viability, T/C (compound 0.316 µM): 102% and 104% and 110%
viability, T/C (compound 1 µM): 80.2% and 106% and 104%
viability, T/C (compound 3.16 µM): 68% and 106% and 91.7%
viability, T/C (compound 10 µM): 45.8% and 63.5% and 59.2%

IC50 (curve of compound): 0.367 µM and 0.381 µM and 0.601 µM
Compound: C=CCn1c(=O)c2cnc(Nc3ccc(N4CCN(C)CC4)cc3)nc2n1-c1cccc(C(C)(C)O)n1
viability, T/C (compound 0.0316 µM): 106% and 108% and 101%
viability, T/C (compound 0.1 µM): 94.6% and 98.4% and 92.7%
viability, T/C (compound 0.316 µM): 53% and 53.7% and 76.8%
viability, T/C (compound 1 µM): 24.1% and 24.6% and 28.5%
viability, T/C (compound 3.16 µM): 13.3% and 13.7% and 23.5%
viability, T/C (compound 10 µM): 12.5% and 12% and 23.2%

IC50 (curve of compound): > 10 µM
Compound: COc1ncnc(C2CC2)c1-c1ncc2cnn(Cc3ccc(-c4nc(C(F)(F)F)cn4C(C)C)cc3)c2n1
viability, T/C (compound 0.0316 µM): 113% and 96.4% and 110%
viability, T/C (compound 0.1 µM): 108% and 109% and 97.3%
viability, T/C (compound 0.316 µM): 99.2% and 103% and 102%
viability, T/C (compound 1 µM): 116% and 99.7% and 105%
viability, T/C (compound 3.16 µM): 106% and 100% (2×)
viability, T/C (compound 10 µM): 106% and 92.4% and 93.6%

Continued, compound first:

Compound: Cc1cnc(CNC(=O)c2c(=O)c3ccc(N4CCCN(C)CC4)nc3n3c2sc2ccccc23)cn1
viability, T/C (compound 0.0316 µM): 104% [middle of 12 runs]
viability, T/C (compound 3.16 µM): 31.6% [middle of 12 runs]
viability, T/C (compound 10 µM): 25.1% [middle of 12 runs]

Compound: COc1ccc([C@@H](O)c2cc(-c3ncnc4cc(N5CCOCC5)ccc34)c(F)cc2Cl)nn1 + Cc1[nH]c2ccc(F)cc2c1-c1nc2c3cccnc3c3ncccc3c2[nH]1
IC50 (curve of first compound, second compound 0.0316 µM): > 10 µM
IC50 (curve of first compound, second compound 0.1 µM): > 10 µM
IC50 (curve of first compound, second compound 0.316 µM): > 10 µM
IC50 (curve of first compound, second compound 1 µM): > 10 µM
IC50 (curve of first compound, second compound 3.16 µM): > 10 µM
IC50 (curve of first compound, second compound 10 µM): 8.73 µM
viability, T/C (second compound 0.0316 µM, first compound 0.0316 µM): 106%
viability, T/C (second compound 0.0316 µM, first compound 0.1 µM): 108%
viability, T/C (second compound 0.0316 µM, first compound 0.316 µM): 101%
viability, T/C (second compound 0.0316 µM, first compound 1 µM): 105%
viability, T/C (second compound 0.0316 µM, first compound 3.16 µM): 106%
viability, T/C (second compound 0.0316 µM, first compound 10 µM): 53.6%
viability, T/C (second compound 0.1 µM, first compound 0.0316 µM): 108%
viability, T/C (second compound 0.1 µM, first compound 0.1 µM): 104%
viability, T/C (second compound 0.1 µM, first compound 0.316 µM): 110%
viability, T/C (second compound 0.1 µM, first compound 1 µM): 104%
viability, T/C (second compound 0.1 µM, first compound 3.16 µM): 104%
viability, T/C (second compound 0.1 µM, first compound 10 µM): 58.4%
viability, T/C (second compound 0.316 µM, first compound 0.0316 µM): 104%
viability, T/C (second compound 0.316 µM, first compound 0.1 µM): 111%
viability, T/C (second compound 0.316 µM, first compound 0.316 µM): 111%
viability, T/C (second compound 0.316 µM, first compound 1 µM): 111%
viability, T/C (second compound 0.316 µM, first compound 3.16 µM): 111%
viability, T/C (second compound 0.316 µM, first compound 10 µM): 61%
viability, T/C (second compound 1 µM, first compound 0.0316 µM): 101%
viability, T/C (second compound 1 µM, first compound 0.1 µM): 99.2%
viability, T/C (second compound 1 µM, first compound 0.316 µM): 104%
viability, T/C (second compound 1 µM, first compound 1 µM): 96.8%
viability, T/C (second compound 1 µM, first compound 3.16 µM): 90.2%
viability, T/C (second compound 1 µM, first compound 10 µM): 72.5%
viability, T/C (second compound 3.16 µM, first compound 0.0316 µM): 96.7%
viability, T/C (second compound 3.16 µM, first compound 0.1 µM): 99.2%
viability, T/C (second compound 3.16 µM, first compound 0.316 µM): 90%
viability, T/C (second compound 3.16 µM, first compound 1 µM): 97.8%
viability, T/C (second compound 3.16 µM, first compound 3.16 µM): 97.4%
viability, T/C (second compound 3.16 µM, first compound 10 µM): 51.2%
viability, T/C (second compound 10 µM, first compound 0.0316 µM): 90.3%
viability, T/C (second compound 10 µM, first compound 0.1 µM): 101%
viability, T/C (second compound 10 µM, first compound 0.316 µM): 97.4%
viability, T/C (second compound 10 µM, first compound 1 µM): 117%
viability, T/C (second compound 10 µM, first compound 3.16 µM): 100%
viability, T/C (second compound 10 µM, first compound 10 µM): 43.2%
